Patent US8158811B2, “Unsaturated fatty hydroxy acid derivatives and the dermocosmetologic use thereof” (Pierre Fabre Dermo-Cosmetique, priority 2005, dated 2012)

Legend:
[1] = tested on: murine melanome cell line B16-F10; experiment: melanin synthesis, colorimetric assay, basal and after α-MSH; format: cell-based; details: Mus musculus, alpha MSH 1 μM, read-out: inhibition of alpha MSH activity (melanin increase)
Method: The modulating effect of unsaturated fatty hydroxy acid derivatives on melanogenesis was analysed. To do this, measurement of melanin synthesis by colorimetric assay was performed on a murine melanome cell line: line B16-F10.
The effect of products was investigated in a basal situation and after stimulation by α-MSH in order to determine depigmenting capacity.
Levels of extracellular and intracellular melanin were measured by spectrophotometry at a wavelength of 405 nm according to the protocol described by Anob et al., 1999. The amount of pigment was determined using a standard melanin range and analysis on Microwin software (Berthold Biotechnologies). A total protein assay was carried out for intracellular melanin samples by means of the BCA-Copper method at 540 nm. The standard range was made up using standard protein BSA (Bovine Serum Albumin).

FATP4 = experiment: keratinocyte differentiation, real-time RT-PCR of FATP4 transcripts; format: cell-based, human; details: NHK, 48 hours
Method: (§1) Normal human keratinocytes (NHK) proliferate and differentiate in vitro, forming stratified layers which mimic the basal organisation of the skin. Extracellular calcium concentrations in excess of 0.1 mM initiate a cascade of genome and non-genome events which take the keratinocytes from a proliferative phase towards a differentiation phase. Keratinocyte differentiation can then be evaluated by studying the expression of several markers such as keratins 1 and 10, transglutaminase 1, desaturase DES2, involucrine, FATP4 and ABCG1 transporters. We therefore evaluated the effect of certain hydroxyalcene carboxylic acids in an in vitro culture model.
(§2) Normal human keratinocytes are isolated from skin explants. They are cultured in KSFM medium (Gibco) with a low calcium content (0.1 mM) containing 25 μg/ml of BPE (bovine pituitary extract) and […] of EGF (epithelium growth factor). 24 hours after culturing, differentiation is triggered by the addition of calcium (final concentration 1.2 mM). The active ingredients are added or not at the same time as calcium at concentrations of 100 and 1 μg/ml in order to determine whether or not they have a potentialising effect on differentiation. Cells were then analysed 48 hours after the addition of calcium and these products.
(§3) Total RNA was extracted under cold conditions from keratinocytes.
(§4) After reverse transcription of mRNA into cDNA, PCRs were made up in 96 well plates (iCycler quantitative PCR apparatus, BioRad). Expression of transcripts of transglutaminase, desaturase (DES2), ABCG1 and FATP4 were standardized with respect to the expression of reference genes (GAPDH, UBC, HPRT).

transglutaminase 1 (TG1) = experiment: keratinocyte differentiation, real-time RT-PCR of transglutaminase 1 transcripts; format: cell-based, human; details: NHK, 48 hours
Method: as §1, §2, §3, §4

[2] = tested on: membrane lipids, fibroblast line L929; experiment: TBARS test, lipid peroxidation after H2O2/Fe2+/Fe3+; format: cell-based, murin; details: 0.02 ng/ml, pretreated 16 hours
Description: In order to evaluate membrane changes, we measured lipid peroxidation by in vitro assay of complexes between the products of lipid oxidation and thiobarbituric acid. These complexes are called TBARS (thiobarbituric acid reactive substances) and give the test its name: TBARS Test.
In order to mimic chemical oxidative stress, we treated a fibroblast line (L929) with a complex consisting of hydrogen peroxide (H2O2) and iron (Fe^2+/Fe^3+) thus reconstituting the Fenton reaction which is the source of oxygenated free radicals and particularly the hydroxyl radical (OH°) (D. A Vessey et al. 1992): H2O2+Fe^2+→OH°+OH^−+Fe^3+
The products were evaluated on a murin fibroblast line L929. Cells were pretreated with different concentrations of the product for 16 hours and were then stimulated with the H2O2/Fe^2+/Fe^3+ complex (200 μM−1 mM) for 1 hour. • Stock solutions: 100 mg/ml ethanol, 4° C. • Final solutions: 0.02 ng/ml.
Peroxidation of membrane lipids was analysed by measuring TBARS (Protocol ref. PLN°2, according to Morliere et al, 1991).
[…]. TBARS assays are therefore expressed in pmole/μg of protein. Proteins and TBARS are assayed in the intracellular medium.
Using the TBARS calculation in pmole/μg protein, we calculated the protective efficacy of various products against the oxidation of lipid membranes.
Four separate experiments were carried out. Several compounds were evaluated in the course of these experiments (the test only allows 10 molecules to be evaluated at one time). The compounds were evaluated several times and were chosen as a function of the results obtained in another test which also measured anti-radical activity (assay test for activated oxygen species).
The model used in this experiment (Fenton reaction) triggers considerable lipid peroxidation of the L929 fibroblasts. This massive release of the hydroxyl radical OH° thus generates oxidative stress in the cells, particularly in the membranes. However, in this type of oxidative reaction, the products resulting from lipid peroxidation are internalized in the cells and TBARS are therefore assayed in the intracellular medium.

[3] = tested on: intracellular AOSs, fibroblast line L929; experiment: in vitro assay of intracellular AOSs (H2DCF-DA probe) after H2O2/iron oxidative stress; format: cell-based, murin; details: Mus musculus, pre-incubation 3 h, L929, read-out: Percentage inhibition of the intracellular production of AOS; for inhibition at 0.0002 µg/mL: 0.2 ng/ml
Description: We set up an in vitro study model of oxidative stress induced by H2O2/iron as H2O2 generates huge amounts of intracellular AOSs as a result of a chain reaction triggered by oxidation of membrane lipids.
This technique is based on the use of a fluorescent probe, 6-carboxy-2′,7′-dichlorodihydro fluorescein diacetate, di (acetoxymethyl ester) (H2DCF-DA) which once it penetrates into the cell is deacetylated by intracellular esterases and thus forms H2DCF. This product is oxidized by intracellular AOSs into a highly fluorescent compound: 2′,7′-dichlorofluorescein (DCF) (Suematsu M et al., 1996, Free Radicals Practical Approach, Punchard ed. P 83-99).
The materials and methods used for in vitro assay of intracellular AOSs are given below. • a) Cell tool • Cutaneous murin fibroblast cell line L929. • b) Materials • 96 well flat based microplate. • Cytofluor II cytofluorameter: Ref. PERCEPTIVE BIOSYSTEMS. • c) Reagents • Cell culture reagents: • Dulbecco's Modified Eagle Medium as the culture medium (DMEM) • Foetal calf serum • Phosphate buffer PBS pH 7.4 • Trypsin EDTA (1X) Fluorescent probe • 6-carboxy-2′,7′-dichlorodihydrofluorescein diacetate, di(acetoxymethyl ester) (PM.675,43) Cell stimulation products • Hydrogen peroxide (H2O2) 3% Ref. GIFRER (Gifrer Barbezat Laboratory) • Ferrous ammonium sulphate (Fe^2+) • Ferric ammonium sulphate (Fe^3+) • d) Products tested:
For the evaluation of unsaturated fatty hydroxy acid derivatives, the dilutions are prepared in freshly prepared culture medium for a concentration range of 0.02, 0.2, 2 and 20 ng/ml. • e) Protocol. Cell culturing.
Cells from the fibroblast line L929 were cultured in 96-well flat base microplates in 100 μl of DMEM supplemented with 10% foetal calf serum. These were incubated overnight at 37° C. in a humid atmosphere at 5% CO2. The blank plate without cells was evaluated using 6 wells.
Dilutions of the products to be tested and reference molecule were made up in culture medium without foetal calf serum then deposited in 7 wells at a rate of 100 μl per well.
Cells were then incubated for 3 hours at 37° C. in a humid atmosphere at 5% CO2.
Cells were rinsed in PBS 1X at a rate of 100 μl per well. They were then incubated for 30 minutes at 37° C. in a humid atmosphere at 5% CO2 with 50 μl of the H2DCF-DA probe at 5 μM.
After 30 minutes of contact with the probe alone, cells were incubated for 30 minutes at 37° C. in a humid atmosphere at 5% CO2 with the addition of 25 μl of H2O2 at 800 μM and 25 μl of ferrous iron and ferric iron solution at 8 mM in order to obtain final concentrations of 200 μM of H2O2 and 2 mM of ferrous iron and ferric iron.
Cells were then rinsed with PBS 1X at a rate of 100 μl per well then incubated for 30 minutes at 37° C. in a humid atmosphere at 5% CO2 with 100 μl of PBS 1X.
This incubation for 1 h 30 minutes at 37° C. allows intracellular esterases to deacetylate the probe into H2DCF which can be oxidized by the intracellular AOSs into DCF: a fluorescent compound whose formation is proportional to the quantity of intracellular AOSs.
The intensity of fluorescence is read on a cytofluorimeter at λexcitation=485 nm and λemission=530 nm. This reflects the amount of intracellular AOS produced.
The ratio below makes it possible to calculate the % protection against the production of intracellular AOSs for each product concentration tested (because the intensity of fluorescence or IF reflects the release of intracellular AOSs)
• Pre-incubation: 3 h • Number of tests=3 for all compounds. • Number of tests=18 for vit. E

desaturase DES2 = experiment: keratinocyte differentiation, real-time RT-PCR of DES2 transcripts; format: cell-based, human; details: NHK, 48 hours
Method: as §1, §2, §3, §4

ABCG1 = experiment: keratinocyte differentiation, real-time RT-PCR of ABCG1 transcripts; format: cell-based, human; details: NHK, 48 hours
Method: as §1, §2, §3, §4

Interleukin 8 = experiment: release of Interleukin 8 by keratinocytes NHK stimulated with PMA + calcium ionophore A23187 (ELISA); format: cell-based, human; details: 3 μg/ml, keratinocytes, PMA + A23187 6 hours
Method: In this study, carried out using 96 well plates, we evaluated the activity of hydroxyl alkine acids on the production of Interleukin 8 produced in the keratinocytes by phorbol ester PMA and calcium ionophore A23187.
A suspension of keratinocytes in supplemented KSFM was divided between 96 well plates (3.10^4 cells/wells) and incubated for 16 hours at 37° C. under an atmosphere of 5% CO2. The keratinocytes were then rinsed with PBS in order to eliminate non adhering cells then exposed to the products to be tested included in non supplemented KSFM (which could interfere with the assay).
The concentration tested in culture was 3 μg/ml. This was retained after a preliminary test to evaluate cytotoxicity (neutral red) and is not cytotoxic.
3 wells were used for each treatment. Cells were preincubated for 60 minutes with the products to be tested then stimulated, in parallel to negative controls without stimulant: Phorbol Myristate Acetate (PMA) 1 μm+Calcium ionophore (A23187) 0.1 μm.
Incubation for 6 hours at 37° C. in a humid air atmosphere containing 5% CO2.
The culture medium for each of the wells was recovered, centrifuged at 3000 rpm and stored at −80° C.
Cytokine assay: IL8 was assayed using the ELISA kit immunoenzyme method (immunotech).
The results are given as percentage activity/stimulated control.
The compounds according to the invention were evaluated in terms of anti-inflammatory activity on the release of Interleukin 8 by human keratinocytes NHK stimulated by phorbol ester PMA+calcium ionophore A23187.

prostaglandin 6KF1α = experiment: production of prostaglandin 6KF1α by keratinocytes stimulated with calcium ionophore A23187 (ELISA); format: cell-based; details: 3 μg/ml, A23187 1 μm 5 hours
Method: A suspension of keratinocytes in DMEM 10% foetal calf serum was divided into 6 well plates (1.2. 106cells/wells) and incubated for 16 hours at 37° C. in a 5% CO2 atmosphere. The keratinocytes were then rinsed with PBS in order to eliminate non adhering cells then exposed to the products to be tested included in DMEM without foetal calf serum (which could interfere with the assay).
The concentration tested in culture was 3 μg/ml. This was retained as the test concentration after a preliminary evaluation test for cytotoxicity (neutral red) and is not cytotoxic.
For each treatment, three wells were tested. Cells were pre-incubated for 60 minutes with the products to be tested then a stimulating agent was added to stimulate the arachidonic acid cascade (calcium ionophore) which was added for 5 hours: calcium ionophore A23187 was used at a concentration of 1 μm.
After 5 hours in culture, the culture medium for each well was recovered, centrifuged at 3000 rpm and stored at −80° C.
The production of prostaglandin 6KF1α for each of the tests was measured using a EUROMEDEX Elisa Kit.
Results are expressed as the percentage activity/stimulated control.

| Structure (SMILES) | Induction Factor vs Control (CaCl2 1.2 mM) FATP4 (FATP4; 1 μg/ml) | Induction Factor vs Control (CaCl2 1.2 mM) FATP4 (FATP4; 100 μg/ml) | Induction Factor vs Control (CaCl2 1.2 mM) TG1 (transglutaminase 1 (TG1); 1 μg/ml) | Induction Factor vs Control (CaCl2 1.2 mM) TG1 (transglutaminase 1 (TG1); 100 μg/ml) | % membrane lipid protection, Mean [2] | inhibition at 0.0002 µg/mL [3] | Induction Factor vs Control (CaCl2 1.2 mM) DES2 (desaturase DES2; 1 μg/ml) | Induction Factor vs Control (CaCl2 1.2 mM) DES2 (desaturase DES2; 100 μg/ml) | Induction Factor vs Control (CaCl2 1.2 mM) ABCG1 (ABCG1; 1 μg/ml) | Induction Factor vs Control (CaCl2 1.2 mM) ABCG1 (ABCG1; 100 μg/ml) | % inhibition of IL-8 release (Interleukin 8) | % inhibiting activity of evaluated molecules on the production of PG6KF1α Inflammation (prostaglandin 6KF1α) | also measured |
| --- | --- | --- | --- | --- | --- | --- | --- | --- | --- | --- | --- | --- | --- |
| Oc1ccc(O)cc1 [hydroquinone] |  |  |  |  |  |  |  |  |  |  |  |  | inhibition at 1 µg/mL ([1]; 1 μg/ml): 60% |
| O=C(O)C(F)=CCCCCCCCO [n=6, R=H, Rn=H, R1=F, 10-hydroxy-dec-2-fluoro-2 enoic acid] | 1.0 | 1.9 | 1.2 | 7.8 | 40.65% | 4% | 1.3 | 10.3 | 1.3 | 6.3 |  |  | inhibition at 20 pg/mL ([3]; 0.02 ng/ml): 15%; inhibition at 0.002 µg/mL ([3]; 2 ng/ml): 5%; inhibition at 0.02 µg/mL ([3]; 20 ng/ml): -9% |
| O=C(O)/C=C/CCCCCCCO [n=6, R=H, Rn=H, R1=H, DHA] | 1.2 | 2.5 | 1.1 | 12.3 | 52.91% | 33% | 1.7 | 11.5 | 1.9 | 6.6 |  |  |  |
| O=C(O)C(F)=CCCCCCCCCCO [n=8, R=H, Rn=H, R1=F, 12-hydroxy-dodeca-2-fluoro-2-enoic acid] |  |  |  |  |  |  |  |  |  |  | Non-active | 44% |  |
| O=C(O)/C=C/CCCCCCCCCO [n=8, R=H, Rn=H, R1=H, 12-hydroxy-dodeca-2t-enoic acid] |  |  |  |  |  |  |  |  |  |  | Non-active | 32% |  |
| O=C1O[C@H]([C@@H](O)CO)C(O)=C1O [vitamin C] |  |  |  |  |  |  |  |  |  |  |  |  | inhibition at 40 µg/mL ([1]; 40 μg/ml): 60% |
